From patent publication US4169953A (priority 1977, dated 1979)
In brackets after ≈: the same amount, converted by molar mass. Where a name gives a salt, the structure may show the parent alone.

Test system: not listed separately
Assay: in vitro
Conditions: chicken, chick embryo fibroblasts

Row | SMILES | MCC
1 | O=C(OC1CCCC1)C12CCCC(C1)C1CCC2C1 (centres unmarked) | 200 µg/mL
2 | O=C(OC1CCCCC1)C12CCCC(C1)C1CCC2C1 (centres unmarked) | 200 µg/mL
3 | O=C(OC1CC2CC1C1CCCC21)C12CCCC(C1)C1CCC2C1 (centres unmarked) | 1000 µg/mL
4 | COC(=O)C12CCCC(C1)C1CCC2C1 (centres unmarked) [CH3] | 200 µg/mL
5 | NC12CC3CC(CC(C3)C1)C2 [adamantylamine hydrochloride, reference compound] | 250 µg/mL
6 | CCCCOC(=O)C12CCCC(C1)C1CCC2C1 (centres unmarked) [n-C4 H9] | 200 µg/mL
7 | CCCCCCCCOC(=O)C12CCCC(C1)C1CCC2C1 (centres unmarked) [n-C8 H17] | 1000 µg/mL

Test system: Newcastle disease virus
Assay: microbe, parasite or virus in culture
Format: cell-based
Conditions: avian paramyxovirus 1, in Gallus gallus

Row | SMILES | MIC
8 | O=C(OC1CCCC1)C12CCCC(C1)C1CCC2C1 (centres unmarked) | 40 µg/mL (≈ 152 µM)
9 | O=C(OC1CCCCC1)C12CCCC(C1)C1CCC2C1 (centres unmarked) | 200 µg/mL (≈ 724 µM)
10 | O=C(OC1CC2CC1C1CCCC21)C12CCCC(C1)C1CCC2C1 (centres unmarked) | 200 µg/mL (≈ 609 µM)
11 | COC(=O)C12CCCC(C1)C1CCC2C1 (centres unmarked) [CH3] | 200 µg/mL (≈ 960 µM)
12 | NC12CC3CC(CC(C3)C1)C2 [adamantylamine hydrochloride, reference compound] | 250 µg/mL
13 | CCCCOC(=O)C12CCCC(C1)C1CCC2C1 (centres unmarked) [n-C4 H9] | 40 µg/mL (≈ 160 µM)
14 | CCCCCCCCOC(=O)C12CCCC(C1)C1CCC2C1 (centres unmarked) [n-C8 H17] | 200 µg/mL (≈ 653 µM)
